pIC50: −log10 of the molar value. Where two headings read alike, the source gives them in different places.
How the values were obtained:
active MEK1 kinase = target: T1, active MEK1 kinase (Homo sapiens, UniProt Q02750); test: HTRF phosphor-ERK2 assay (MEK1-ERK2 assay); assay type: biochemical; details: inhibition of active MEK1 phosphorylating inactive ERK2, mean of three ± SD
T1 construct: purchased Carna Biosciences
Procedure: (§1) Phosphorylated MEK1 was determined quantitatively by formation of a complex with specific Eu-labeled anti-phospho p44/42 MAPK (Thr202/Tyr204) antibody and anti-GST-XL665.After 3 h, time-resolved fluorescence was read using a FlexStation 3 plate reader (Molecular Devices, Sunnyvale, CA, USA). […] The curve-fitting software GraphPad Prism 4.0 was used to generate the curves and determine the IC50 values. […] The calculation method of HTRF ratio was the same with that in HTRF phosphor-MEK1 assay.

melanoma A375 cells [1] = test: cells; details: Homo sapiens, A-375, 72 h
Procedure: (§2) A375, U87, A549 cell line, which were obtained from the National Platform of Experimental Cell Resources for Sci-Tech (Beijing, China), were cultured in Dulbecco’s modified Eagle’s medium (DMEM; Hyclone, Logan, UT, USA), supplemented with 10% heat-inactivated FBS (Hyclone), 100 U/mL penicillin, and 100 μg/mL streptomycin (Wako Pure Chemical Industries, Ltd., Osaka, Japan).
(§3) The cytotoxicity of the RGD-MKE1 conjugates on A375 melanoma cells, ERK signal pathway hyper-activated cell line, was studied in vitro by using an SRB assay. A375 cells (4.5 × 10^3) or U87 cells (5.0 × 10^3) were plated in each well of a 96-well tissue culture plate. Medium supplemented with 10% FBS was added, and cells were allowed to adhere for 24h. […] Then the medium was removed from the 96-well plate, and 10% ice-cold trichloroacetic acid (TCA, 200 μL) was added. The plate was kept at 4 for one hour after which was washed five times with deionized water, then stained with Sulforhodamine B (SRB, 100 μL, Sigma, St. Louis, MO, USA) before air drying. After washing with 1% acetic acid, the bound dye was solubilized with Tris base A (Sigma) and 100 μL of each sample were transferred into a 96-well plate, and then absorbance was read in a 96-well plate reader at 540 nm.Inhibitory ratio (%) = [(ODcontrol − ODtreated)/(ODcontrol)] × 100%.

inactive MEK1 kinase = inactive MEK1 kinase (Homo sapiens, UniProt Q02750); test: HTRF phosphor-MEK1 assay (BRAF-MEK1 assay); assay type: biochemical; details: for BRAF-MEK1 assay (%) 0.01μM / BRAF-MEK1 assay (%) 0.1 μM / BRAF-MEK1 assay (%) 1 μM: inhibition of phosphorylation of inactive MEK1, mean of three ± SD
Procedure: as §1

melanoma A375 cells [2] = details: for pIC50: 72 h
Procedure: as §2, §3

U87 glioblastoma cells = test: In vitro anti-proliferation assay by the SRB method, U87; assay type: cell-based, human
Procedure: as §2, §3

[3] = tested on: p-ERK1/2 in melanoma A375 cells; test: Western blotting of p-ERK1/2 in A375 cell lysates; assay type: cell-based; details: 10 μM, 2 h
Procedure: To evaluate the expression levels of ERK singal pathway after treated with conjugates, A375 cells were treated with compounds for 2 h respectively. Confluent cells were washed with ice-cold phosphate-buffered saline (PBS), and treated with lysis buffer (Beyotime Institute of Biotechnology, Suzhou, China) on ice for 1 h. Then the lysates were collected by scraping from the plates and then centrifuged at 13,000 rpm at 4 °C for 15 min. The protein concentration was quantitated using a Pierce BCA Protein Assay Kit (Thermo Scientific, Rockford, IL, USA) ona FlexStation 3 Benchtop Multi-Mode Microplate Reader at 562 nm (Molecular Devices). An equal amount of proteins (10 μg per lane) for each sample were analyzed by SDS-PAGE on a 10% gel. After electro-blotting to PVDF membrane (Millipore, Billerica, MA, USA) at 400 mA for 1 h, membranes were blocked with 5% nonfat dry milk for 1 h at room temperature. Membrane were washed with 0.1% PBST three times and then incubated with primary antibodies overnight at 4 °C. Antibodies against pERK and ERK (Cell Signaling Technology, Inc., Danvers, MA, USA) were utilized as the primary antibodies. […] Finally, protein products were analyzedby Image Lab^TM software(ChemiDoc^TM XRS System, BIO-RAD, Hercules, CA, USA) with. […]

T1 sequence (Q02750 whole entry): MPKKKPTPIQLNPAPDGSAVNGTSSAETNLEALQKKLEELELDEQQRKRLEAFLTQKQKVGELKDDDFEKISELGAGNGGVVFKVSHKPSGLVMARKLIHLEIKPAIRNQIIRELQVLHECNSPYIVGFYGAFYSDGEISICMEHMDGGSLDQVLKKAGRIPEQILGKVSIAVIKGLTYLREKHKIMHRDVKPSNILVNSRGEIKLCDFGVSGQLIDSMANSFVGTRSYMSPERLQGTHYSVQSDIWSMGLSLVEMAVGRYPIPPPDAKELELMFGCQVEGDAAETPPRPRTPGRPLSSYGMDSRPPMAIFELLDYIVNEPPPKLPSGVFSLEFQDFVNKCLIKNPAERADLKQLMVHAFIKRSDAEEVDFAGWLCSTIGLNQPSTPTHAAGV
Sequence of inactive MEK1 kinase (Q02750 whole entry): as above

Molecule | MEK1-ERK2 assay (%) 1 μM (active MEK1 kinase) | MEK1-ERK2 assay (%) 10 μM (active MEK1 kinase) | BRAF-MEK1 assay (%) 0.01μM (inactive MEK1 kinase) | BRAF-MEK1 assay (%) 0.1 μM (inactive MEK1 kinase) | BRAF-MEK1 assay (%) 1 μM (inactive MEK1 kinase) | also measured
O=C(O)CCC(=O)NCCCONC(=O)c1ccc(F)c(F)c1Nc1ccc(I)cc1F [Compound 8b, 4-((3-((3,4-Difluoro-2-((2-fluoro-4-iodophenyl)amino)benzamido)oxy)propyl)amino)-4-oxobutanoic acid] | 29.1 ± 12.0% | 83.4 ± 1.2% | 12.5 ± 3.2% | 39.6 ± 9.3% | 57.5 ± 1.7% | pIC50 (melanoma A375 cells [1]; read-out: A375 cell IC50): 4.85
N=C(N)NCCC[C@@H]1NC(=O)[C@H](CCCCNC(=O)CCC(=O)NCCONC(=O)c2ccc(F)c(F)c2Nc2ccc(I)cc2F)NC(=O)[C@@H](Cc2ccc(O)cc2)NC(=O)[C@H](CC(=O)O)NC(=O)CNC1=O [Compound 9a] | 66.5 ± 7.7% | 88.4 ± 1.4% | 0.3 ± 0.0% | 30.0 ± 4.7% | 74.2 ± 7.2% | pIC50 (melanoma A375 cells [2]): 5.36
O=C(NOC[C@H](O)CO)c1ccc(F)c(F)c1Nc1ccc(I)cc1F [PD0325901, reference compound] | – | – | – | – | – | pIC50 (melanoma A375 cells [1]; read-out: A375 cell IC50): 9.35; inhibition at 1 µM (U87 glioblastoma cells; Homo sapiens, U-87 MG, high concentrations (>1 µM), concentration-independent, 72 h, read-out: inhibitory activity in U87 cells): ~50%
N=C(N)NCCC[C@@H]1NC(=O)[C@H](CCCCNC(=O)CCC(=O)NCCCONC(=O)c2ccc(F)c(F)c2Nc2ccc(I)cc2F)NC(=O)[C@@H](Cc2ccc(O)cc2)NC(=O)[C@H](CC(=O)O)NC(=O)CNC1=O [Compound 9b] | 69.9 ± 3.2% | 93.5 ± 2.2% | 6.7 ± 8.5% | 58.5 ± 8.5% | 77.6 ± 7.5% | inhibition of the phosphorylation of ERK1/2 protein [3]: up to 90%; U87 cell-growth inhibition (U87 glioblastoma cells; 10 µM, SRB method): 21.3%; pIC50 (inactive MEK1 kinase): 7.32; pIC50 (melanoma A375 cells [2]): 5.68
O=C(O)CCC(=O)OC[C@H](O)CONC(=O)c1ccc(F)c(F)c1Nc1ccc(I)cc1F [Compound 11, (S)-4-(3-((3,4-difluoro-2-((2-fluoro-4-iodophenyl)amino)benzamido)oxy)-2-hydroxypropoxy)-4-oxobutanoic Acid] | – | – | – | – | – | pIC50 (melanoma A375 cells [1]; read-out: A375 proliferation assay IC50): 6.64; fold loss of antitumor efficacy compared to 13 (melanoma A375 cells [2]; A375 IC50 vs 13): ~10 fold
O=C(O)CCC(=O)NCCCCONC(=O)c1ccc(F)c(F)c1Nc1ccc(I)cc1F [Compound 8c, 4-((4-((3,4-Difluoro-2-((2-fluoro-4-iodophenyl)amino)benzamido)oxy)butyl)amino)-4-oxobutanoic acid] | – | – | – | – | – | melting point: 120.9 to 121.9 °C
c(RGDyK) [cRGD peptides, reference compound] | – | – | – | – | – | inhibition of the phosphorylation of ERK1/2 protein [3]: no inhibitory activity
NCCOCCONC(=O)c1ccc(F)c(F)c1Nc1ccc(I)cc1F [Compound 7e, N-(2-(2-aminoethoxy)ethoxy)-3,4-difluoro-2-((2-fluoro-4-iodophenyl)amino)benzamide] | – | – | – | – | – | melting point: 197.5 to 198.5 °C

Source: PMC6269693, “Synthesis and Biological Evaluation of RGD-Conjugated MEK1/2 Kinase Inhibitors for Integrin-Targeted Cancer Therapy” (Molecules, 2013)
